From US9382254B2, “Compounds and pharmaceutical compositions thereof for the treatment of cystic fibrosis” (Galapagos NV, priority 2013, dated 2016)

Tests used:
Assay type in all cases: cell-based
[1] = target: T1, CFTR ΔF508 mutant (Homo sapiens, UniProt P13569, DEL508-508); test: YFP-halide influx assay for the CFTR-ΔF508 mutation, gluconate buffer; settings: CFBE41o- cells, forskolin 10.67 μM
T1 construct: expressed in transfected cells; host or cells: CFBE41o- (adenoviral transduction)
From the text: The YFP halide influx assay measures the functionality of the cystic fibrosis Transmembrane Conductance regulator (CFTR) channels in the cystic fibrosis bronchial epithelium cell line CFBE41o-. The assay is used to evaluate the capacity of compounds to increase the open probability of existing CFTR channels in the membrane. It makes use of the observation that the yellow fluorescent protein (YFP) variant YFP H148Q, I152L has its fluorescence substantially quenched by halide ions like Cl^− and I^−. (Galietta, Haggie, & Verkman, 2001) (Nagai, et al., 2002)
For this purpose, CFBE41o-cells are seeded in 96 well plates (6000 CFBE cells/well). One day after seeding, the CFBE cells are transduced with adenoviral vectors that direct the expression of the CFTR ΔF508 mutant and of the YFP reporter. Cells are incubated at 27° C., 5% CO2 for 24 hours so as to allow for the proper folding and migration to the membrane of the CFTR channel or treated with a CFTR modulator during 24 hours at 37° C.
The I^−-induced quenching of fluorescence is recorded immediately after injection of I^− for 7 seconds. The capacity of a compound to increase the channel opening is directly correlated with the decrease in fluorescence, and is expressed as (1-(fluorescence after 7 seconds (F)/fluorescence before injection (F0))) and an EC50 can be derived from a (1-F/F0) vs compound concentration plot.

[2] = target: T1, CFTR ΔF508 mutant; test: YFP-halide influx assay for the CFTR-ΔF508 mutation (384 well, FDSS/μCell); settings: CFBE41o- cells, CFTR-ΔF508, 1×D-PBS, fluorescence after 36 seconds
Method in brief: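 Potentiator read-out as 1−F/F0, F taken 36 s after iodide addition, EC50 fitted against compound concentration. Cells: CFBE41o- expressing ΔF508 CFTR plus halide-sensitive YFP via adenovirus, rescued by 27 °C for 24 h or 24 h modulator at 37 °C.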

[3] = target: T2, CFTR G551D mutant (Homo sapiens, UniProt P13569, G551D); test: YFP-halide influx assay for the CFTR-G551D mutation; settings: HEK293 cells, forskolin 10.67 μM
T2 construct: expressed in transfected cells; host or cells: HEK293 (reverse transfection with plasmid)
Method in brief: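 Channel opening potentiation measured as 1−F/F0, where F is YFP fluorescence 7 s after iodide injection and F0 before; EC50 taken from concentration plot. Cells: HEK293 transiently expressing CFTR G551D plus halide-sensitive YFP (H148Q, I152L, F47L), 24 h at 37 °C, 5% CO2.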

T2 sequence (P13569 whole entry G551D): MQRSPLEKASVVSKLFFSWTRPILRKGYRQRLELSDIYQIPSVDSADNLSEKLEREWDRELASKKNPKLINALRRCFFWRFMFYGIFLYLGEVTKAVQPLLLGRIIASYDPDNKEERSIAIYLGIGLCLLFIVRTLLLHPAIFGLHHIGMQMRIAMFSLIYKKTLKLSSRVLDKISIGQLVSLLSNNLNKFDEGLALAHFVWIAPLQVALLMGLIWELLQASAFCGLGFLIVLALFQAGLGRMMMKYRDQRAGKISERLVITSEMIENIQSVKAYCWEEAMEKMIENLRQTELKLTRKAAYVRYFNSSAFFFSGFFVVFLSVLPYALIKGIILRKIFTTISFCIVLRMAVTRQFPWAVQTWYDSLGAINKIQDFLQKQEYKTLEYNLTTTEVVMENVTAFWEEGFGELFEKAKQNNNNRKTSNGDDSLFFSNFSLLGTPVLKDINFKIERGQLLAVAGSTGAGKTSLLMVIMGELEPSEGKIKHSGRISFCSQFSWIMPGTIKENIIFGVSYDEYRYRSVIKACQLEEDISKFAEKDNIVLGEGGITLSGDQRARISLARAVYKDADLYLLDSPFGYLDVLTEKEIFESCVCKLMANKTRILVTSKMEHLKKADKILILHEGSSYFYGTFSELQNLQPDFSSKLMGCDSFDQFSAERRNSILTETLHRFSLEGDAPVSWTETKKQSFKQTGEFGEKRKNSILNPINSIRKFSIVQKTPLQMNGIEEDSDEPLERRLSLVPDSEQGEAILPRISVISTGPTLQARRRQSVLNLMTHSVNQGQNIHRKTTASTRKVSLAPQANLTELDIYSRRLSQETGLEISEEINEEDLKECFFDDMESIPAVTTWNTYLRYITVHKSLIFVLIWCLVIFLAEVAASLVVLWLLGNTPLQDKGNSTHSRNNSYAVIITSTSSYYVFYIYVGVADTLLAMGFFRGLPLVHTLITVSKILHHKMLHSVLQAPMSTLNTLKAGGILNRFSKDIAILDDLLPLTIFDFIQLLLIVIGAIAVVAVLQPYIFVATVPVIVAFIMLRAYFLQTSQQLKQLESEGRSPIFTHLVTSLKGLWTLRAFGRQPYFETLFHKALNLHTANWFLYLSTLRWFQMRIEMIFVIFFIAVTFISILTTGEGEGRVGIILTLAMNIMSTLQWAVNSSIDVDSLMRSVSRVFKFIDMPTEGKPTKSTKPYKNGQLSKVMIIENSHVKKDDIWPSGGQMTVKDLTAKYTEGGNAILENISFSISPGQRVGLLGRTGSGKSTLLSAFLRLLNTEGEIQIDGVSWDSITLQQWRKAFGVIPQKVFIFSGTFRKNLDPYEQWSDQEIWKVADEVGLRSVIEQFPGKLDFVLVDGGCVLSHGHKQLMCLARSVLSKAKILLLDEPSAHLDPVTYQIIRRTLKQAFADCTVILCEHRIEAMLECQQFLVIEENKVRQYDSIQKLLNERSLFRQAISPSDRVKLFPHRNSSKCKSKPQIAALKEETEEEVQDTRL
T1 sequence (P13569 with tags, fused parts or gaps DEL508-508): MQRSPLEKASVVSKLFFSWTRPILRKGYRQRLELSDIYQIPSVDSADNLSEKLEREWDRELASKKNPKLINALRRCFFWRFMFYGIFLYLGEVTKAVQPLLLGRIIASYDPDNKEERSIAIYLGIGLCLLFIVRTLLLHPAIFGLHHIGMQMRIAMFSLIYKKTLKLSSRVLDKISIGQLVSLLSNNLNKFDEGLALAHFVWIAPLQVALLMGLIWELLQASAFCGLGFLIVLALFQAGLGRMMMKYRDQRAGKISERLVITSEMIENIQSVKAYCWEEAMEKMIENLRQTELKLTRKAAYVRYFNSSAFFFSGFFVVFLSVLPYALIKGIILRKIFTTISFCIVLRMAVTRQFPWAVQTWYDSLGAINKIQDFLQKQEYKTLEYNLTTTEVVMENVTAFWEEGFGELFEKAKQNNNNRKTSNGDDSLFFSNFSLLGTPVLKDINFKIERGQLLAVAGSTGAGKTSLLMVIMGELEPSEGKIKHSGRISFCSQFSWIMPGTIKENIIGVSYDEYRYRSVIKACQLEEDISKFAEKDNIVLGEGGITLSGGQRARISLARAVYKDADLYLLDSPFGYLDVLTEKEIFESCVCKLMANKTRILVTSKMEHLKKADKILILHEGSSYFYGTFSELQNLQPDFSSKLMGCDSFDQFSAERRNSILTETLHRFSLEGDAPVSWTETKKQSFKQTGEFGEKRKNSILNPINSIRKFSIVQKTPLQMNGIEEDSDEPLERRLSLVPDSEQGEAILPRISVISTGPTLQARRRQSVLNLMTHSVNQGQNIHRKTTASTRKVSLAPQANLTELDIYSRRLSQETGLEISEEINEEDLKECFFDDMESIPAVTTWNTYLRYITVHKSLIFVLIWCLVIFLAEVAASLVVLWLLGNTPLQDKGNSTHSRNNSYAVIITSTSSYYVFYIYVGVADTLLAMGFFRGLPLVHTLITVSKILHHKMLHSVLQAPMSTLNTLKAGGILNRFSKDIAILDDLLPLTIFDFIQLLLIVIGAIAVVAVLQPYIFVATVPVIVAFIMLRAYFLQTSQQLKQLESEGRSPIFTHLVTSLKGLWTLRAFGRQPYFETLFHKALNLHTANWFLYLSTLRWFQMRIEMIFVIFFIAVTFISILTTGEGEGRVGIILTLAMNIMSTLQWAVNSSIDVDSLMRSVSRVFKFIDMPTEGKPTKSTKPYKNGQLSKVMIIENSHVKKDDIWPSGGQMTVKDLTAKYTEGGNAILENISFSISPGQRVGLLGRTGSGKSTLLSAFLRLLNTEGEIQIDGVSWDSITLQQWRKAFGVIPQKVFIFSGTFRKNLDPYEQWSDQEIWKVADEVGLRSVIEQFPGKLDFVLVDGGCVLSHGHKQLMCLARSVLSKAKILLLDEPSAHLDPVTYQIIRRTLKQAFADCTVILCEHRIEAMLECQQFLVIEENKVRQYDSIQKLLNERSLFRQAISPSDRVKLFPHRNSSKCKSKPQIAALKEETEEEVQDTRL

EC50 [1] [nM] | EC50 [2] [nM] | EC50 [3] [nM] | EC50 ([3]; class symbol) [nM] | Structure (SMILES)
135 |  |  |  | Cc1ccc(C(=O)Nc2sc(S(=O)(=O)N3CCCCC3)cc2C(N)=O)s1 [Compound 1, N-(3-carbamoyl-5-(piperidin-1-ylsulfonyl)thiophen-2-yl)-5-methylthiophene-2-carboxamidc]
483 |  |  |  | NC(=O)c1cc(S(=O)(=O)N2CCCCC2)sc1NC(=O)c1cc2c(F)cccc2s1 [Compound 2, N-(3-carbamoyl-5-(piperidin-1-ylsulfonyl)thiophen-2-yl)-4-fluorobenzo[b] thiophene-2-carboxamide]
944 |  |  |  | Cc1ccc(C(=O)Nc2sc(S(=O)(=O)N3CCN(C)CC3)cc2C(N)=O)s1 [Compound 5, N-(3-carbamoyl-5-(4-methylpiperazin-1-ylsulfonyl)thiophen-2-yl)-5-methylthiophene-2-carboxamide]
321 |  |  |  | Cc1ccc(C(=O)Nc2sc(S(=O)(=O)N(C)Cc3ccccc3)cc2C(N)=O)s1 [Compound 6, N-(5-(N-benzyl-N-methylsulfamoyl)-3-carbamoylthiophen-2-yl)-5-methylthiophene-2-carboxamide]
1080 |  |  |  | Cc1ccc(C(=O)Nc2sc(S(=O)(=O)N(C)c3ccccc3)cc2C(N)=O)s1 [Compound 7, N-(3-carbamoyl-5-(N-methyl-N-phenylsulfamoyl)thiophen-2-yl)-5-methylthiophen-2-carboxamide]
646 |  |  |  | Cc1ccc(C(=O)Nc2sc(S(=O)(=O)N3Cc4ccccc4C3)cc2C(N)=O)s1 [Compound 8, N-(3-carbamoyl-5-(isoindolin-2-ylsulfonyl)thiophen-2-yl)-5-methylthiphen-2-carboxamide]
603 |  |  |  | NC(=O)c1cc(S(=O)(=O)N2CCCCC2)sc1NC(=O)c1cc2c(s1)CCCC2 [Compound 9, N-(3-carbamoyl-5-(piperidin-1-ylsulfonyl)thiophen-2-yl)-4,5,6,7-tetrahydrobenzo[b] thiophene-2-carboxamide]
 | 56.6 | 1900 |  | Cc1cc(C#N)cc(S(=O)(=O)c2cc(C(N)=O)c(NC(=O)C(C)(C)O)s2)c1 [Compound 399, 5-(3-cyano-5-methyl-phenyl)sulfonyl-2-[(2-hydroxy-2-methyl-propanoyl)amino] thiophene-3-carboxamide]
 | 56.7 | 1950 |  | COc1ccc(S(=O)(=O)c2cc(C(N)=O)c(NC(=O)C(C)(C)O)s2)cc1 [Compound 400, 2-[(2-hydroxy-2-methyl-propanoyl)amino]-5-(4-methoxyphenyl)sulfonyl-thiophene-3-carboxamide]
 | 27.5 | 1610 |  | CC(O)C(=O)Nc1sc(S(=O)(=O)c2ccc(OC(F)F)cc2)cc1C(N)=O (centres unmarked) [Compound 403, 5-[4-(difluoromethoxy)phenyl] sulfonyl-2-(2-hydroxypropanoylamino) thiophene-3-carboxamide]
 | 56.1 | 1310 |  | CC(C)(O)C(=O)Nc1sc(S(=O)(=O)c2ccc(C#N)cc2F)cc1C(N)=O [Compound 406, 5-(4-cyano-2-fluoro-phenyl)sulfonyl-2-[(2-hydroxy-2-methyl-propanoyl)amino] thiophene-3-carboxamide]
 | 47.7 | 2370 |  | CC(C)(O)C(=O)Nc1sc(S(=O)(=O)c2cccc(C#N)c2)cc1C(N)=O [Compound 409, 5-(3-cyanophenyl)sulfonyl-2-[(2-hydroxy-2-methyl-propanoyl)amino] thiophene-3-carboxamide]
 | 111 |  | > 1000 | COc1c(Cl)ncnc1S(=O)(=O)c1cc(C(N)=O)c(NC(=O)C(C)(C)O)s1 [Compound 414, 5-(6-chloro-5-methoxy-pyrimidin-4-yl)sulfonyl-2-[(2-hydroxy-2-methyl-propanoyl)amino] thiophene-3-carboxamide]
 | 305 |  | > 1000 | COc1cnc(C(F)(F)F)nc1S(=O)(=O)c1cc(C(N)=O)c(NC(=O)C(C)(C)O)s1 [Compound 415, 2-[(2-hydroxy-2-methyl-propanoyl)amino]-5-[5-methoxy-2-(trifluoromethyl)pyrimidin-4-yl]sulfonyl-thiophene-3-carboxamide]
 | 147 | 6660 |  | CC(C)(O)C(=O)Nc1sc(S(=O)(=O)c2nccnc2C(F)(F)F)cc1C(N)=O [Compound 417, 2-[(2-hydroxy-2-methyl-propanoyl)amino]-5-[3-(trifluoromethyl)pyrazin-2-yl]sulfonyl-thiophene-3-carboxamide]
 | 76.1 | 3330 |  | CC(C)(O)C(=O)Nc1sc(S(=O)(=O)c2cc(CC#N)cc(OC(F)(F)F)c2)cc1C(N)=O [Compound 428, 5-[3-(cyanomethyl)-5-(trifluoromethoxy)phenyl] sulfonyl-2-[(2-hydroxy-2-methyl-propanoyl)amino] thiophene-3-carboxamide]
 | 150 | 2220 |  | CC(C)(O)C(=O)Nc1sc(S(=O)(=O)c2ccc(C(F)(F)F)nn2)cc1C(N)=O [Compound 431, 2-[(2-hydroxy-2-methyl-propanoyl)amino]-5-[6-(trifluoromethyl)pyridazin-3-yl]sulfonyl-thiophene-3-carboxamide]
 | 227 | 1930 |  | CN1COCc2cc(S(=O)(=O)c3cc(C(N)=O)c(NC(=O)C(C)(C)O)s3)ccc21 [Compound 434, 2-[(2-hdyroxy-2-methyl-propanoyl)amino]-5-[(1-methyl-2,4-dihydro-3,1-benzoxazin-6-yl)sulfonyl] thiophene-3-carboxamide]
 | 32.1 | 1730 |  | CC(C)(O)C(=O)Nc1sc(S(=O)(=O)c2cccnc2C(F)(F)F)cc1C(N)=O [Compound 436, 2-[(2-hydroxy-2-methyl-propanoyl)amino]-5-[[2-(trifluoromethyl)-3-pyridyl]sulfonyl] thiophene-3-carboxamide]
 | 216 |  | > 1000 | CC(C)(O)C(=O)Nc1sc(S(=O)(=O)c2nc(CO)ccc2C(F)(F)F)cc1C(N)=O [Compound 438, 2-[(2-hydroxy-2-methyl-propanoyl)amino]-5-[[6-(hydroxymethyl)-3-(trifluoromethyl)-2-pyridyl]sulfonyl] thiophene-3-carboxamide]
 | 7.16 | 6660 |  | Cc1c(S(=O)(=O)c2ccc(C(F)(F)F)cc2F)sc(NC(=O)C(C)(C)O)c1C(N)=O [Compound 439, 5-[2-fluoro-4-(trifluoromethyl)phenyl]sulfonyl-2-[(2-hydroxy-2-methyl-propanoyl)amino]-4-methyl-thiophene-3-carboxamide]
 | 13 | 2190 |  | CC(C)(O)C(=O)Nc1sc(S(=O)(=O)c2cc(Cl)cnc2C(F)(F)F)cc1C(N)=O [Compound 440, 5-[[5-chloro-2-(trifluoromethyl)-3-pyridyl]sulfonyl]-2-[(2-hydroxy-2-methyl-propanoyl)amino] thiophene-3-carboxamide]
 | 90.9 | 3330 |  | NC(=O)c1cc(S(=O)(=O)c2ccc(OC(F)(F)F)cc2)sc1NC(=O)C1CCCO1 (centres unmarked) [Compound 442, N-[3-carbamoyl-5-[4-(trifluoromethoxy)phenyl]sulfonyl-2-thienyl] tetrahydrofuran-2-carboxamide]
 | 107 | 3330 |  | NC(=O)c1cc(S(=O)(=O)c2ccc(OC(F)(F)F)cc2)sc1NC(=O)C1CCOC1 (centres unmarked) [Compound 443, N-[3-carbamoyl-5-[4-(trifluoromethoxy)phenyl]sulfonyl-2-thienyl] tetrahydrofuran-3-carboxamide]
